Like-named read-outs stand apart in the source and are kept apart here.
Columns and labels:
Type in all cases: biochemical
[1] = target: T1, mouse plasma DPPIV (Mus musculus, UniProt P28843); test: DPPIV enzymatic activity in mouse plasma; details: C57BL/6 mouse plasma; H-Gly-Pro-AMC substrate
T1 construct: from tissue; host or cells: mouse plasma (C57BL/6, EDTA)
Experimental: Approximately 500 μL of whole blood from one C57BL/6 mouse was harvested into BD Microtainer® tubes (K2) EDTA (#365974, Becton Dickinson and Co.) via terminal cardiac puncture. The blood sample was immediately centrifuged at approximately 9000 g at 4° C. for 5 minutes. Plasma was separated and stored at −80° C. in aliquots of 300 μL. To assay baseline DPPIV enzymatic exopeptidase activity, 5 μL of thawed, mouse plasma was diluted (1:5) in buffer (100 mM Tris-HCl, 400 mM NaCl, 50 mM salicylic acid, 1 mM EDTA, pH 7.5) and mixed with 35 µL of the same buffer before being pre-incubated with different concentrations of 10 μL of test compounds or DMSO vehicle for 15 minutes at 37° C. in 96-well black plates (Nunc, #237108). After pre-incubation, 50 μL of 200 μM dipeptide substrate H-Gly-Pro-AMC (Bachem, #L-1225) was added to the mixture. The assay was performed for 1 hour at 37° C. 7-Amino-4-Methylcoumarin (AMC) release was detected measuring fluorescence at an excitation wavelength of 360 nm and an emission wavelength of 460 nm using a Multifunction Microplate Reader (Synergy 4, Biotek). All measurements were carried out at least in duplicate.

[2] = target: T2, recombinant human FAPα (rhFAPα) (Homo sapiens, UniProt Q12884); test: FAPα enzymatic exopeptidase (dipeptidase) activity assay; details: for inhibition at 1 µM: read-out: rhFAPα (% exo inh @ 1 μM)
T2 construct: purchased R&S system (so in the source)
T2 sequence (Q12884 1-760): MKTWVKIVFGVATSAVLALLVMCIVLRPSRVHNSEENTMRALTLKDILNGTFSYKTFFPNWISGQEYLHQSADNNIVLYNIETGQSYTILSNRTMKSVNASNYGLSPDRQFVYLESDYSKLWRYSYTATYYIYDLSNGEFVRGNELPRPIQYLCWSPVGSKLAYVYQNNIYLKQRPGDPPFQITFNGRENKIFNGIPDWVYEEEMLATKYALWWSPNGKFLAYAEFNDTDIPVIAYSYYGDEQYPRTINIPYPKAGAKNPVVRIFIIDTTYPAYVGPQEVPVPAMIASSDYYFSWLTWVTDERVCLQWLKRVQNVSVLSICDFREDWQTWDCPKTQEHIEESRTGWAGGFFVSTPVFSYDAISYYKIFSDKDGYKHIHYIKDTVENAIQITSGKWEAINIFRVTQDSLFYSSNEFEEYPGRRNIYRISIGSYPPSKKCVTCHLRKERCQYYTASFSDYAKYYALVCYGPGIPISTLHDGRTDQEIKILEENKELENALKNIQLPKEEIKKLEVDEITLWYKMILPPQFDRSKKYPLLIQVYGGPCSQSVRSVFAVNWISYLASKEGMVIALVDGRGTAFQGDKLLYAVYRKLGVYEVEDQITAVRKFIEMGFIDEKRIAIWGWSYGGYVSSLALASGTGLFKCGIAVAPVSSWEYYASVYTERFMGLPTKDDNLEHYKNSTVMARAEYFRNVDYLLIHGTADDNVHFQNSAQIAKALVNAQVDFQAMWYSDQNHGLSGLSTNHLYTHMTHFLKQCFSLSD

[3] = target: T3, mouse plasma FAPα (Mus musculus, UniProt P97321); test: FAPα enzymatic activity in mouse plasma; details: C57BL/6 mouse plasma
T3 construct: from tissue; host or cells: mouse plasma (C57BL/6, EDTA)
T3 sequence (P97321 24-761 limits assumed): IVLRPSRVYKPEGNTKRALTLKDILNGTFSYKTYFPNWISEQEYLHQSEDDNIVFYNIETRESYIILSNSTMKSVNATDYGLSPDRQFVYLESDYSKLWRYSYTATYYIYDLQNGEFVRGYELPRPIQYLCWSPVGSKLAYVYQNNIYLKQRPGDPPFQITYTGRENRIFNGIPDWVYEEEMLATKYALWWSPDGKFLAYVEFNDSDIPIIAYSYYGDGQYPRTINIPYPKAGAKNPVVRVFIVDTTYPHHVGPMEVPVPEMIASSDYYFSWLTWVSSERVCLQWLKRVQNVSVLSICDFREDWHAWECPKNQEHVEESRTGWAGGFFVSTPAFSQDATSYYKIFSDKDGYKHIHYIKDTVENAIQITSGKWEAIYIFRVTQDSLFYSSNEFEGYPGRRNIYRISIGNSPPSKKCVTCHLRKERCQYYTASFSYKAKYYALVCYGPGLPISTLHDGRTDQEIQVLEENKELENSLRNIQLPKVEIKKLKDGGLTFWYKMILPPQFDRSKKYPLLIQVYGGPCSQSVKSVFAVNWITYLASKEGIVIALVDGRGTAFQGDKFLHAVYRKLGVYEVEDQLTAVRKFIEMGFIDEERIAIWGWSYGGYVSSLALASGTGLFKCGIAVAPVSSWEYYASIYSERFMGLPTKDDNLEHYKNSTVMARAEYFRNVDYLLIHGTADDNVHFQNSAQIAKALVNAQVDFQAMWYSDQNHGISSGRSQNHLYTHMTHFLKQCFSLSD
Experimental: The blood sample was immediately centrifuged at approximately 9000 g at 4° C. for 5 minutes. Plasma was separated and stored at −80° C. in aliquots of 300 μL. […] The assay was performed for 1 hour at 37° C. protected from light. 7-Amino-4-Methylcoumarin (AMC) release was detected measuring fluorescence at an excitation wavelength of 380 nm and an emission wavelength of 460 nm using a Multifunction Microplate Reader (Synergy 4, Biotek). All measurements were carried out at least as a single point.

[4] = Table 2, exopeptidase, Z-Gly-Pro-AMC, read-out: rhFAPα (exo IC50)
[5] = Table 3, exopeptidase, read-out: rhFAPα (exo IC50)
[6] = PRXS-AMC substrate, read-out: mouse plasma FAPα (PRXS-AMC) (exo IC50)
[7] = 1 μM test compound, Z-Gly-Pro-AMC substrate
[8] = Z-Gly-Pro-AMC substrate, read-out: mouse plasma FAPα (Z-Gly-Pro-AMC) (exo IC50)

T1 sequence (P28843 37-760 limits assumed): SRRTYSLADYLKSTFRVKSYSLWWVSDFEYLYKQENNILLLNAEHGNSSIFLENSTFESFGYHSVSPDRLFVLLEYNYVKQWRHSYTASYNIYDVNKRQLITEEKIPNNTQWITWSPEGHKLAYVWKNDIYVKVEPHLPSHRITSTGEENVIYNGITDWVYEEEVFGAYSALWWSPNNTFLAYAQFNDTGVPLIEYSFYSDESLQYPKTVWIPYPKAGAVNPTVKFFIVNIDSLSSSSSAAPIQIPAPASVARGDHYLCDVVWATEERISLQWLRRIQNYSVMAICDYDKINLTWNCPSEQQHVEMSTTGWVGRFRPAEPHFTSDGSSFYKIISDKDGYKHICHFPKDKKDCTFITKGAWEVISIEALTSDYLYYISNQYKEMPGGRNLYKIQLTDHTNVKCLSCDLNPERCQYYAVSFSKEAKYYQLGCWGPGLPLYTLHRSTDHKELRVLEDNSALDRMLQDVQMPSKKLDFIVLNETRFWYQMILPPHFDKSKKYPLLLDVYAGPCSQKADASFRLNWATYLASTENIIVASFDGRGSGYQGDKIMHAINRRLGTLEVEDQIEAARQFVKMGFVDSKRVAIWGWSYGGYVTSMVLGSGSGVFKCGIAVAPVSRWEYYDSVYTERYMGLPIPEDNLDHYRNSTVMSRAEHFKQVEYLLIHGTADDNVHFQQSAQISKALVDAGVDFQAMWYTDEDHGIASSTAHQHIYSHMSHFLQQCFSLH

IC50 [2, 4] [nM] | IC50 [2, 5] [nM] | inhibition at 1 µM [2, 7] [%] | IC50 [3, 8] [nM] | Compound | IC50 [1] [nM] | inhibition at 1 µM [2] [%] | IC50 [3, 6] [nM] | IC50 [2] [nM] | IC50 ([2]; read-out: rhFAPα (exo IC50), Table 3, exopeptidase) [nM]
< 1000 | < 1000 | > 50 | < 1000 | N#C[C@@H]1CC(F)(F)CN1C(=O)CNC(=O)c1ccncc1N1CCOCC1 [Compound 88, N-[2-[(2S)-2-cyano-4,4-difluoro-pyrrolidin-1-yl]-2-oxo-ethyl]-3-morpholino-pyridine-4-carboxamide] | 1000 to 10000 |  | < 1000 |  | 
< 1000 | < 1000 | > 50 | < 1000 | N#C[C@@H]1CC(F)(F)CN1C(=O)CNC(=O)c1ccncc1-c1cc(Cl)ccc1F [Compound 54, (S)-3-(5-chloro-2-fluorophenyl)-N-(2-(2-cyano-4,4-difluoropyrrolidin-1-yl)-2-oxoethyl)isonicotinamide] | > 10000 |  | < 1000 |  | 
< 1000 | < 1000 | > 50 | < 1000 | N#C[C@@H]1CC(F)(F)CN1C(=O)CNC(=O)c1c[nH]c(=O)c2ccc(F)cc12 [Compound 26, (S)—N-(2-(2-cyano-4,4-difluoropyrrolidin-1-yl)-2-oxoethyl)-6-fluoro-1-oxo-1,2-dihydroisoquinoline-4-carboxamide] | < 1000 |  | < 1000 |  | 
< 1000 | < 1000 | > 50 | < 1000 | N#C[C@@H]1CC(F)(F)CN1C(=O)CNC(=O)c1ccncc1Cc1ccccc1 [Compound 50, (S)-3-benzyl-N-(2-(2-cyano-4,4-difluoropyrrolidin-1-yl)-2-oxoethyl)isonicotinamide] |  |  | < 1000 |  | 
< 1000 | < 1000 | > 50 | < 1000 | C=Cc1cnccc1C(=O)NCC(=O)N1CC(F)(F)C[C@H]1C#N [Compound 40, (S)—N-(2-(2-cyano-4,4-difluoropyrrolidin-1-yl)-2-oxoethyl)-3-vinylisonicotinamide] | > 10000 |  | < 1000 |  | 
< 1000 | < 1000 | > 50 | < 1000 | Cn1ncc2c(-c3cnccc3C(=O)NCC(=O)N3CC(F)(F)C[C@H]3C#N)cccc21 [Compound 87, (S)—N-(2-(2-cyano-4,4-difluoropyrrolidin-1-yl)-2-oxoethyl)-3-(1-methyl-1H-indazol-4-yl)isonicotinamide] | 1000 to 10000 |  | < 1000 |  | 
< 1000 | < 1000 |  | < 1000 | N#C[C@@H]1CC(F)(F)CN1C(=O)CNC(=O)c1c[nH]c(=O)c2ccccc12 [Example 1, (S)—N-(2-(2-cyano-4,4-difluoropyrrolidin-1-yl)-2-oxoethyl)-1-oxo-1,2-dihydroisoquinoline-4-carboxamide] | < 1000 |  |  |  | 
< 1000 | < 1000 | > 50 | < 1000 | N#C[C@@H]1CC(F)(F)CN1C(=O)CNC(=O)c1c[nH]c(=O)c(-c2ccccc2)c1 [Compound 14, (S)—N-(2-(2-cyano-4,4-difluoropyrrolidin-1-yl)-2-oxoethyl)-6-oxo-5-phenyl-1,6-dihydropyridine-3-carboxamide] | 1000 to 10000 |  | < 1000 |  | 

Compound | IC50 [2, 4] [nM] | IC50 [2, 5] [nM] | inhibition at 1 µM [2, 7] [%] | IC50 [3, 8] [nM] | IC50 [1] [nM] | inhibition at 1 µM [2] [%] | IC50 [3, 6] [nM] | IC50 [2] [nM] | IC50 ([2]; read-out: rhFAPα (exo IC50), Table 3, exopeptidase) [nM]
N#C[C@@H]1CC(F)(F)CN1C(=O)CNC(=O)c1c[nH]c(=O)cc1-c1ccc(F)cc1 [Compound 109, (S)—N-(2-(2-cyano-4,4-difluoropyrrolidin-1-yl)-2-oxoethyl)-4-(4-fluorophenyl)-6-oxo-1,6-dihydropyridine-3-carboxamide] | < 1000 | < 1000 |  |  | 1000 to 10000 | > 50 | < 1000 |  | 
N#C[C@@H]1CC(F)(F)CN1C(=O)CNC(=O)c1ccncc1-c1cc(F)cc(F)c1 [Compound 47, (S)—N-(2-(2-cyano-4,4-difluoropyrrolidin-1-yl)-2-oxoethyl)-3-(3,5-difluorophenyl)isonicotinamide] |  |  |  | < 1000 | > 10000 | > 50 | < 1000 | < 1000 | < 1000
N#C[C@@H]1CC(F)(F)CN1C(=O)CNC(=O)c1ccncc1C1=CCNCC1 [Compound 105, (S)—N-(2-(2-cyano-4,4-difluoropyrrolidin-1-yl)-2-oxoethyl)-1′,2′,3′,6′-tetrahydro-[3,4′-bipyridine]-4-carboxamide 2,2,2-trifluoroacetate] | < 1000 | < 1000 |  |  | > 10000 | > 50 | < 1000 |  | 
N#C[C@@H]1CC(F)(F)CN1C(=O)CNC(=O)c1ccncc1C1CC1 [Compound 24, (S)—N-(2-(2-cyano-4,4-difluoropyrrolidin-1-yl)-2-oxoethyl)-3-cyclopropylisonicotinamide] | < 1000 | < 1000 |  | < 1000 | > 10000 | > 50 | < 1000 |  | 
C=C(c1ccccc1)c1cnccc1C(=O)NCC(=O)N1CC(F)(F)C[C@H]1C#N [Compound 122, (S)—N-(2-(2-cyano-4,4-difluoropyrrolidin-1-yl)-2-oxoethyl)-3-(1-phenylvinyl)isonicotinamide] | < 1000 | < 1000 |  |  | > 10000 | > 50 | < 1000 |  | 
N#C[C@@H]1CC(F)(F)CN1C(=O)CNC(=O)c1ccncc1-c1ccc(F)cc1 [Compound 52, (S)—N-(2-(2-cyano-4,4-difluoropyrrolidin-1-yl)-2-oxoethyl)-3-(4-fluorophenyl)isonicotinamide] | < 1000 | < 1000 |  | < 1000 | > 10000 | > 50 | < 1000 |  | 
N#C[C@@H]1CC(F)(F)CN1C(=O)CNC(=O)c1ccncc1-c1ccccc1 [Compound 13, (S)—N-(2-(2-cyano-4,4-difluoropyrrolidin-1-yl)-2-oxoethyl)-3-phenylisonicotinamide] | < 1000 | < 1000 |  | < 1000 | > 10000 | > 50 | < 1000 |  | 
